Results as given in PMC6838013, “Insight Into Mosquito GnRH-Related Neuropeptide Receptor Specificity Revealed Through Analysis of Naturally Occurring and Synthetic Analogs of This Neuropeptide Family” (Frontiers in Endocrinology, 2019).
“And” between values parts separate entries of the source, which are not always exact repeats. Equal values may be shown once. Non-standard residues stand in square brackets, D forms with d. Residues, ends and D or L forms follow the SMILES beside them. pGlu = O=C1CC[C@@H](C(=O)O)N1

Experiments:
[1] = test system: A. aegypti ACP receptor (AedaeACPR); experiment: Calcium bioluminescence (aequorin) reporter assay of heterologously expressed ACPR; format: cell-based, Aedes aegypti; conditions: for Fold-reduction in activity relative to AedaeACP: ACPR in CHO-K1 aequorin cells, relative to native Aedae-ACP; for EC50: CHO-K1 cells stably expressing aequorin, transiently transfected with ACPR and murine Gα15 (pBudCE4.1), luminescence 20 s, 3 to 4 independent biological replicates, ND = no determined EC50 due to minimal or no detectable activity up to 10 μM; for Activity on ACPR at the highest tested dose, in words: 10 μM, Figure 2, ANOVA and Tukey post-test
Description: Therefore, to improve the bioluminescent signal linked to calcium mobilization following receptor activation, which was required in order to provide greater signal to noise ratio when testing ACP analogs with substitutions leading to intermediate levels of activation of the ACPR, we created a new mammalian expression construct using the dual promoter vector, pBudCE4.1. Specifically, we utilized a cloning strategy as reported previously ([41]) whereby the ACPR was inserted into the multiple cloning site (MCS) downstream of the CMV promoter in pBudCE4.1 using the sense primer SalI-KozakACPR, 5′-[…]-3′ and anti-sense primer XbaI-ACPR, 5′-[…]-3′, which directionally inserted the ACPR within the MCS downstream of the CMV promoter. Secondly, the murine homolog (Gα15) of the human promiscuous G protein, Gα16, which indiscriminately couples a wide variety of GPCRs to calcium signaling ([42]) was inserted into the MCS downstream of the EF1-α promoter in pBudCE4.1 using the sense primer NotI-Gα15, 5′-[…]-3′ and anti-sense primer BglII-Gα15, 5′-[…]-3′, which directionally inserted the murine Gα15 within the MCS downstream of the EF1-α promoter.
(§1) Functional activation of the AedaeACPR and AedaeAKHR-IA receptors was carried out following a previously described mammalian cell culture system involving a Chinese hamster ovary (CHO)-K1 cell line stably expressing aequorin ([43]). Cells were grown in DMEM:F12 media containing 10% heat-inactivated fetal bovine serum (Wisent, St. Bruno, QC), 200 μg/mL Geneticin, 1x antimycotic-antibiotic to approximately 90% confluency, and were transiently transfected using either Lipofectamine LTX with Plus Reagent or Lipofectamine 3000 transfection systems (Invitrogen, Burlington, ON) following manufacturer recommended DNA to transfection reagent ratios. Cells were detached from the culture flasks at 48 h post-transfection using 5 mM EDTA in Dulbecco's PBS. Cells were then prepared for the receptor functional assay following a procedure described previously ([27]). Stocks of peptide analogs of ACP and AKH were used for preparation of serial dilutions all of which were prepared in assay media (0.1% BSA in DMEM:F12) and loaded in quadruplicates into 96-well white luminescence plates (Greiner Bio-One, Germany). Cells were loaded with an automatic injector into each well of the plate containing different peptide analogs at various concentrations as well as negative control (assay media alone) and positive control wells (50 μM ATP). Immediately after injection of the cells, luminescence was measured for 20 s using a Synergy 2 Multi-Mode Microplate Reader (BioTek, Winooski, VT, USA). Calculations, including determination of EC50 values, were conducted in GraphPad Prism 7.02 (GraphPad Software, San Diego, USA) from dose-response curves from 3 to 4 independent biological replicates.

[2] = molecular target: A. aegypti AKHR-IA receptor (AKHR-IA) (Aedes aegypti, UniProt A0A2P1A8S4); experiment: Calcium bioluminescence (aequorin) reporter assay of heterologously expressed AKHR-IA; format: cell-based; conditions: for EC50: CHO-K1 cells stably expressing aequorin, transiently transfected with AKHR-IA (pcDNA3.1+), luminescence 20 s, 3 to 4 independent biological replicates, ND = no determined EC50 due to minimal or no detectable activity up to 10 μM; for Fold-reduction in activity relative to Aedae-AKH: AKHR-IA in CHO-K1 aequorin cells, relative to native Aedae-AKH
Sequence of A. aegypti AKHR-IA receptor (AKHR-IA) (A0A2P1A8S4 1-410): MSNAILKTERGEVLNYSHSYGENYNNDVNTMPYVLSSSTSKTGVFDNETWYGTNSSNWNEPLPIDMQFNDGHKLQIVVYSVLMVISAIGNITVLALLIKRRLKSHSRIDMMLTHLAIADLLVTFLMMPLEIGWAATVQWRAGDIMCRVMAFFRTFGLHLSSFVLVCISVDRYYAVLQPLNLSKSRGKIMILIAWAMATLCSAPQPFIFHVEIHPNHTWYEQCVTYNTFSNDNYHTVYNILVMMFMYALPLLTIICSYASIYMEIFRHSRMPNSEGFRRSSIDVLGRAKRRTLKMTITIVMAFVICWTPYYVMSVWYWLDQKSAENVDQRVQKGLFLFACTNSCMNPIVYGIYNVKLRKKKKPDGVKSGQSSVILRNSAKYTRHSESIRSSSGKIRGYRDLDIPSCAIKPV
Description: For each construct, an overnight liquid culture of clonal recombinant bacteria containing the appropriate plasmid construct was grown in antibiotic-containing LB media and used to isolate midiprep DNA using the PureLink Midiprep kit (Life Technologies, Burlington, ON). Midiprep samples were then quantified and sent for sequencing as described previously ([26], [27]).
as §1

Row | Compound | Fold-reduction in activity relative to AedaeACP [1] | EC50 [1] | also measured
1 | pQVTFSRDANAamide [Aedae-ACP (A8), synthetic ACP analog, alanine at position 8] | >1,000 fold |  | 
2 | CC(C)[C@H](NC(=O)[C@@H]1CCC(=O)N1)C(=O)N[C@@H](CC(N)=O)C(=O)N[C@@H](Cc1ccccc1)C(=O)N[C@@H](CO)C(=O)N[C@H](C(=O)NCC(=O)N[C@@H](Cc1c[nH]c2ccccc12)C(N)=O)[C@@H](C)O [Grybi-AKH] ([pGlu]VNFSTGW-NH2) |  |  | EC50 [2]: 2230 nM
3 | CC(C)[C@H](NC(=O)[C@@H]1CCC(=O)N1)C(=O)N[C@H](C(=O)N[C@@H](Cc1ccccc1)C(=O)N[C@@H](CO)C(=O)N[C@@H](CCCNC(=N)N)C(=O)N[C@@H](CC(=O)O)C(=O)N[C@@H](Cc1c[nH]c2ccccc12)C(=O)N[C@@H](CC(N)=O)C(N)=O)[C@@H](C)O [Aedae-ACP (1-9)] ([pGlu]VTFSRDWN-NH2) | 434.2 fold | 4150 nM | 
4 | CC(C)[C@H](NC(=O)[C@@H]1CCC(=O)N1)C(=O)N[C@H](C(=O)N[C@@H](Cc1ccccc1)C(=O)N[C@@H](C)C(=O)N[C@@H](CCCNC(=N)N)C(=O)N[C@@H](CC(=O)O)C(=O)N[C@@H](Cc1c[nH]c2ccccc12)C(=O)N[C@@H](CC(N)=O)C(=O)N[C@@H](C)C(N)=O)[C@@H](C)O [Aedae-ACP (A5)] ([pGlu]VTFARDWNA-NH2) | 44.9 fold | 1040 nM | 
5 | CC(C)C[C@H](NC(=O)[C@@H]1CCC(=O)N1)C(=O)N[C@@H](CC(N)=O)C(=O)N[C@@H](Cc1ccccc1)C(=O)N[C@H](C(=O)N1CCC[C@H]1C(=O)N[C@@H](CO)C(=O)N[C@@H](Cc1c[nH]c2ccccc12)C(N)=O)[C@@H](C)O [Erysi-AKH] ([pGlu]LNFTPSW-NH2) |  |  | Fold-reduction in activity relative to Aedae-AKH [2]: 310 fold and 309.9 fold; EC50 [2]: 669 nM
6 | CC(C)C[C@H](NC(=O)[C@@H]1CCC(=O)N1)C(=O)N[C@@H](CC(N)=O)C(=O)N[C@@H](Cc1ccccc1)C(=O)N[C@H](C(=O)N1CCC[C@H]1C(=O)N[C@@H](CC(N)=O)C(=O)N[C@@H](Cc1c[nH]c2ccccc12)C(N)=O)[C@@H](C)O [Pyrap-AKH] ([pGlu]LNFTPNW-NH2) |  |  | Fold-reduction in activity relative to Aedae-AKH [2]: 337 fold and 336.7 fold; EC50 [2]: 727 nM
7 | CC(C)[C@H](NC(=O)[C@@H]1CCC(=O)N1)C(=O)N[C@H](C(=O)N[C@@H](Cc1ccccc1)C(=O)N[C@@H](CO)C(=O)N[C@@H](CCCNC(=N)N)C(=O)N[C@@H](CC(=O)O)C(=O)N[C@@H](Cc1c[nH]c2ccccc12)C(=O)N[C@@H](CC(N)=O)C(=O)N[C@@H](C)C(=O)NCC(N)=O)[C@@H](C)O [Aedae-ACP (+G)] ([pGlu]VTFSRDWNAG-NH2) | 5.6 fold | 111 nM | 
8 | CC[C@H](C)[C@H](NC(=O)[C@@H]1CCC(=O)N1)C(=O)N[C@H](C(=O)N[C@@H](Cc1ccccc1)C(=O)N[C@@H](CO)C(=O)N[C@@H](CCCNC(=N)N)C(=O)N[C@@H](CC(=O)O)C(=O)N[C@@H](Cc1c[nH]c2ccccc12)C(=O)N[C@@H](CC(N)=O)C(=O)N[C@@H](C)C(N)=O)[C@@H](C)O [Grybi-ACP] ([pGlu]ITFSRDWNA-NH2) | 13.6 fold | 326 nM | Activity on ACPR at the highest tested dose, in words [1]: failed to reach full ACPR activation
9 | Ac-AVTFSRDWNA-NH2 [Aedae-ACP (A1b)] | 43.6 fold | 527 nM | 
10 | CC(C)[C@H](NC(=O)[C@@H]1CCC(=O)N1)C(=O)N[C@H](C(=O)N[C@@H](Cc1ccccc1)C(=O)N[C@@H](CO)C(=O)N[C@@H](C)C(=O)N[C@@H](CC(=O)O)C(=O)N[C@@H](Cc1c[nH]c2ccccc12)C(=O)N[C@@H](CC(N)=O)C(=O)N[C@@H](C)C(N)=O)[C@@H](C)O [Aedae-ACP (A6)] ([pGlu]VTFSADWNA-NH2) | 23.3 fold | 687 nM | 
11 | pQLTFTPSWamide [Aedae-AKH, endogenous octapeptide adipokinetic hormone of Aedes aegypti] |  |  | Activity on ACPR at the highest tested dose, in words [1]: inactive
12 | pQVTASRDWNAamide [Aedae-ACP (A4), synthetic ACP analog, alanine at position 4] | >1,000 fold |  | 
13 | H-AVTFSRDWNA-NH2 [Aedae-ACP (A1)] |  | 1580 nM | 
14 | CC(C)[C@H](NC(=O)[C@@H]1CCC(=O)N1)C(=O)N[C@H](C(=O)N[C@@H](Cc1ccccc1)C(=O)N[C@@H](CO)C(=O)N[C@@H](CCCNC(=N)N)C(=O)N[C@@H](CC(=O)O)C(=O)N[C@@H](Cc1c[nH]c2ccccc12)C(=O)N[C@@H](C)C(=O)N[C@@H](C)C(N)=O)[C@@H](C)O [Aedae-ACP (A9)] ([pGlu]VTFSRDWAA-NH2) | 0.2 fold | 4.96 nM | 
15 | CC(C)[C@H](NC(=O)[C@@H]1CCC(=O)N1)C(=O)N[C@@H](CC(N)=O)C(=O)N[C@@H](Cc1ccccc1)C(=O)N[C@H](C(=O)N1CCC[C@H]1C(=O)N[C@@H](CO)C(=O)N[C@@H](Cc1c[nH]c2ccccc12)C(N)=O)[C@@H](C)O [Libau-AKH] ([pGlu]VNFTPSW-NH2) |  |  | Fold-reduction in activity relative to Aedae-AKH [2]: 548 fold and 547.9 fold; EC50 [2]: 1180 nM; Improved AKHR-IA activation over that achieved by Grybi-AKH ([2]; relative to Grybi-AKH): ~2 fold
16 | pQLTFTSS-amide [Lacol-AKH-7mer, C-terminally truncated synthetic analog based on an endogenous peptide from Laconobia oleracea] |  |  | AKHR-IA activation at the highest tested concentration ([2]; 10 μM, luminescence relative to maximal response with 10^−5M Aedae-AKH): ~ 7%
17 | CC(C)[C@H](NC(=O)[C@@H]1CCC(=O)N1)C(=O)N[C@H](C(=O)N[C@@H](Cc1ccccc1)C(=O)N[C@@H](CO)C(=O)N[C@@H](CCCNC(=N)N)C(=O)N[C@@H](CC(=O)O)C(=O)N[C@@H](Cc1c[nH]c2ccccc12)C(N)=O)[C@@H](C)O [Aedae-ACP (1-8)] ([pGlu]VTFSRDW-NH2) | 410.1 fold | 2160 nM | 
18 | C[C@H](NC(=O)[C@H](CC(N)=O)NC(=O)[C@H](Cc1c[nH]c2ccccc12)NC(=O)[C@H](CC(=O)O)NC(=O)[C@H](CCCNC(=N)N)NC(=O)[C@H](CO)NC(=O)[C@H](Cc1ccccc1)NC(=O)[C@@H](NC(=O)[C@H](C)NC(=O)[C@@H]1CCC(=O)N1)[C@@H](C)O)C(N)=O [Aedae-ACP (A2)] ([pGlu]ATFSRDWNA-NH2) |  | 705 nM | 
19 | pQLTFTSSWGGamide [Lacol-AKH, naturally-occurring insect AKH decapeptide] | >1,000 fold |  | Activity on ACPR at the highest tested dose, in words [1]: low activity
20 | pQLTFSSGWGNamide [Helze-AKH, naturally-occurring insect AKH decapeptide] | >1,000 fold |  | Activity on ACPR at the highest tested dose, in words [1]: low activity
21 | CC(C)[C@H](NC(=O)[C@@H]1CCC(=O)N1)C(=O)N[C@H](C(=O)N[C@@H](Cc1ccccc1)C(=O)N[C@@H](CO)C(=O)N[C@@H](CCCNC(=N)N)C(=O)N[C@@H](C)C(=O)N[C@@H](Cc1c[nH]c2ccccc12)C(=O)N[C@@H](CC(N)=O)C(=O)N[C@@H](C)C(N)=O)[C@@H](C)O [Aedae-ACP (A7)] ([pGlu]VTFSRAWNA-NH2) | 15.9 fold | 386 nM | 
22 | pQ-TFSRDWNAamide [Aedae-ACP (1,3-10), internally truncated ACP analog lacking valine in the second position] | >1,000 fold |  | 
23 | pQVTFSRDWNA-OH [Aedae-ACP (-OH), non-amidated (free acid) ACP analog] | >1,000 fold |  | 
